Measurements from patent US20090176839A1, “FORMULATIONS OF 3-(6-(1-(2,2-DIFLUOROBENZO[D][1,3]DIOXOL-5-YL) CYCLOPROPANECARBOXAMIDO)-3-METHYLPYRIDIN-2-YL)BENZOIC ACID” (priority 2007, published 2009).
Read-outs that look alike come from different tables or passages of the source.

What was measured:
[1] = in vivo; parameters: species or system rats; settings: rat
Protocol: (§1) The animals were dosed orally with the vehicle (0.5% methylcellulose in water), or 15, 75, or 150 mg/kg Compound 1 twice daily for 7 consecutive days. The two daily doses were administered approximately 10 hours apart and the dose volume was 5 mL/kg/b.i.d. for all dose groups. At the end of the dosing period, all animals were euthanized and necropsied. Satellite animals (6/sex/Groups 2-4) were dosed in the same manner as the toxicity animals and plasma samples were collected on Days 1 and 7 for toxicokinetic (TK) analysis. Parameters evaluated during the study were: viability, clinical observations, body weights, feed consumption, clinical pathology (termination), organ weights, macroscopic observations and microscopic pathology.

[2] = test system: rats; test: in vivo; settings: rat
Protocol: as §1

[3] = Toxicokinetics in 7-day dose range finding study in rats; type: in vivo; settings: 300 mg/kg/day; for Cmax: rat, plasma, oral
Protocol: as §1
The plasma AUC0-24 data on Day 1 was consistent with previously conducted single dose studies of Compound 1 in the rat.

[4] = Toxicokinetics in 14-day oral toxicity study in rats; settings: rat, in vivo, 600 mg/kg/day
Text: (§2) There were no major differences noted in TK parameters between males and females, or when comparing study Day 1 to study Day 14.

[5] = Toxicokinetics in 14-day oral toxicity study in dogs; settings: dog, in vivo, 200 mg/kg/day
Text: as §2

[6] = Oral pharmacokinetics of Compound 1 in fed or fasted male dogs at 10 mg/kg; type: in vivo, male beagle dogs; settings: for concentration at 48 hr: oral, read-out: Clast
Protocol: Non-validated research grade assays were used for these analyses. All pharmacokinetic studies were conducted using fed animals unless otherwise specified.
The oral pharmacokinetics of Compound 1 were determined under fed and fasted conditions in male beagle dogs following a single 10 mg/kg administration (Table 6). […] The tmax occurred sooner after administration in the fasted state (1.5 hours) than in the fed state (2.7 hours). The variability of the systemic exposure of Compound 1 was higher under fed conditions (CV of 67% for AUC0-INF) than under fasted conditions (CV of 27% for AUC0-INF), possibly due to changes in stomach emptying time under fed conditions.

[7] = Stability of 6 mg/mL aqueous methylcellulose suspension (HPLC, XRPD); type: physicochemical; settings: room temperature; for Peak purity %: 6 mg/mL aqueous methylcellulose suspension
Protocol: A 100 mL stock solution of 0.5% by weight methylcellulose was prepared by stirring 0.5 g of methylcellulose with 99.5 g of purified water until completely dissolved (approximately 24 hours). […] The desired amount of 0.5% methylcellulose stock solution for making a 6 mg/mL based on free base (6.48 mg/mL based on HCl salt) was transferred into the vial and sonicated for 20 minutes and homogenized for approximately 5 minutes.
The methylcellulose formulation was also subjected to HPLC analysis at 0 and 24 hours: […]

[8] = Solubility (statement); type: physicochemical; settings: aqueous medium
[9] = test system: rats; settings: rat, in vivo, 14 days
Protocol: (§3) Repeat-dose oral toxicity studies of 7- and 14-days duration have been conducted in rats (up to 600 mg/kg/day) and dogs (up to 200 mg/kg/day).

[10] = male, beagle, dog, in vivo, 200 mg/kg
[11] = in vivo; settings: male, beagle, dog, 200 mg/kg
[12] = test system: rats; test: 14-day repeat-dose oral toxicity study in rats; settings: assuming efficacious dose in rats 2.3 mg/kg b.i.d. (Ctrough at EC90)
Protocol: as §3

[13] = male, beagle, dog, plasma, po, 10 mg/kg, male dogs, Fasted
[14] = male, beagle, dog, plasma, po, 10 mg/kg, male dogs, Fed

For `Cc1ccc(NC(=O)C2(c3ccc4c(c3)OC(F)(F)O4)CC2)nc1-c1cccc(C(=O)O)c1` [Compound 1, 3-(6-(1-(2,2-difluorobenzo[d][1,3]dioxol-5-yl)cyclopropanecarboxamido)-3-methylpyridin-2-yl)benzoic acid], the NOAEL at 7 days [1] was 300 mg/kg/day, the “gross lesions and histopathological findings” value [2] was “no test article related gross lesions or histopathological findings” and the adrenal gland weights ([2]; 300 mg/kg/day) was “higher adrenal gland weights”. The body weight ([2]; 300 mg/kg/day) was “minor effects on body weight”, the serum potassium ([2]; 300 mg/kg/day) was “lower serum potassium” and the “urinary pH” value ([2]; 300 mg/kg/day) was “slight increase in urinary pH”. For the same molecule, the average plasma concentrations ([3]; females) was ~190 µM, the Cmax ([3]; female, females) was ~280 µM and the Cmax ([3]; male, males) was ~430 µM. The AUC(0-t) ([4]; both sexes, rats, at the NOAEL (600 mg/kg/day), read-out: average AUC0-24hr) was 3950 µg·h/mL, the Cmax ([4]; both sexes, rats, at the NOAEL (600 mg/kg/day), read-out: average Cmax) was 222 µg/mL and the Tmax ([4]; female, Sprague Dawley, Study Day 1, Female) was 4 h. For the same molecule, the AUC(0-t) ([4]; female, Sprague Dawley, Study Day 1, Female, read-out: AUC0-24 hr) was 4430 µg·h/mL, the Cmax ([4]; female, Sprague Dawley, Study Day 1, Female, read-out: Cmax) was 273 µg/mL and the Tmax ([4]; female, Sprague Dawley, Study Day 14, Female) was 10 h. The AUC(0-t) ([4]; female, Sprague Dawley, Study Day 14, Female, read-out: AUC0-24 hr) was 5500 µg·h/mL, the Cmax ([4]; female, Sprague Dawley, Study Day 14, Female, read-out: Cmax) was 272 µg/mL and the Tmax ([4]; male, Sprague Dawley, Study Day 1, Male) was 10 h. It also gave an AUC(0-t) ([4]; male, Sprague Dawley, Study Day 1, Male, read-out: AUC0-24 hr) of 2660 µg·h/mL, a Cmax ([4]; male, Sprague Dawley, Study Day 1, Male, read-out: Cmax) of 164 µg/mL and a Tmax ([4]; male, Sprague Dawley, Study Day 14, Male) of 10 h. For the same molecule, the AUC(0-t) ([4]; male, Sprague Dawley, Study Day 14, Male, read-out: AUC0-24 hr) was 3220 µg·h/mL, the Cmax ([4]; male, Sprague Dawley, Study Day 14, Male, read-out: Cmax) was 181 µg/mL and the AUC(0-t) ([5]; both sexes, dogs, at the NOAEL (200 mg/kg/day), read-out: average AUC0-24hr) was 645 µg·h/mL. It also gave a Cmax ([5]; both sexes, dogs, at the NOAEL (200 mg/kg/day), read-out: average Cmax) of 75 µg/mL, a Tmax ([5]; female, beagle, Study Day 1, Female) of 4 h and an AUC(0-t) ([5]; female, beagle, Study Day 1, Female, read-out: AUC0-24 hr) of 573 µg·h/mL. For the same molecule, the Cmax ([5]; female, beagle, Study Day 1, Female, read-out: Cmax) was 56 µg/mL, the Tmax ([5]; female, beagle, Study Day 14, Female) was 3 h and the AUC(0-t) ([5]; female, beagle, Study Day 14, Female, read-out: AUC0-24 hr) was 720 µg·h/mL. It also gave a Cmax ([5]; female, beagle, Study Day 14, Female, read-out: Cmax) of 77 µg/mL, a Tmax ([5]; male, beagle, Study Day 1, Male) of 3 h and an AUC(0-t) ([5]; male, beagle, Study Day 1, Male, read-out: AUC0-24 hr) of 691 µg·h/mL. The Cmax ([5]; male, beagle, Study Day 1, Male, read-out: Cmax) was 77 µg/mL, the Tmax ([5]; male, beagle, Study Day 14, Male) was 3 h and the AUC(0-t) ([5]; male, beagle, Study Day 14, Male, read-out: AUC0-24 hr) was 598 µg·h/mL. For the same molecule, the Cmax ([5]; male, beagle, Study Day 14, Male, read-out: Cmax) was 72 µg/mL, the clearance ([6]; dog) was “very low clearance” and the F ([6]; male dogs, 10 mg/kg, Fasted) was 53%. It also gave a tlast ([6]; male dogs, 10 mg/kg, Fasted) of 48 h, an F ([6]; male dogs, 10 mg/kg, Fed) of 53% and a tlast ([6]; male dogs, 10 mg/kg, Fed) of 48 h. For the same molecule, the concentration at 48 hr ([6]; male, beagle, dog, plasma, 10 mg/kg, male dogs, 10 mg/kg, Fasted) was 0.066 µg/mL, the concentration at 48 hr ([6]; male, beagle, dog, plasma, 10 mg/kg, male dogs, 10 mg/kg, Fed) was 0.047 µg/mL and the half-life ([6]; male, beagle, dog, plasma, po, 10 mg/kg, male dogs, 10 mg/kg, Fasted, read-out: t1/2 (converted)) was 6.3 h. It also gave a half-life ([6]; male, beagle, dog, plasma, po, 10 mg/kg, male dogs, 10 mg/kg, Fed, read-out: t1/2 (converted)) of 6.6 h, an AUC(0-inf) [6, 13] of 35.8 µg·h/mL and a Cmax [6, 13] of 7.9 µg/mL. For the same molecule, the Tmax [6, 13] was 1.5 h, the AUC(0-inf) [6, 14] was 35.7 µg·h/mL and the Cmax [6, 14] was 4.1 µg/mL. The Tmax [6, 14] was 2.7 h, the half-life ([6]; male, beagle, dog, plasma, po, administered orally to dogs, read-out: half-life) was 5 to 9 h and the bioavailability ([6]; male, beagle, plasma, po, dog, 10 mg/kg orally in a methylcellulose suspension) was 53%. The Peak purity % ([7]; T(0)) was 99.41%, the Peak purity % ([7]; T(24 h)) was 99.37% and the “physically and chemically stable, time” value ([7]; methylcellulose formulation) was “at least 24 hrs”. For the same molecule, the solubility [8] was “low solubility”, the “human equivalent dose (based on body surface area)” value [9] was “at least 95 mg/kg” and the “human total daily dose equivalent” value [9] was “approximately 5700 mg”. The “light microscopy of more than 40 organs and tissues” value [9] was “no significant Compound 1 related findings”, the “dosage tolerated without toxic effects” value ([9]; po) was “up to 600 mg/kg/day” and the F [10] was 20%. For the same molecule, the tlast [10] was 48 h, the AUC(0-inf) [11] was 288 µg·h/mL and the Cmax [11] was 52 µg/mL. For the same molecule, the concentration at 48 hr [11] was 0.063 µg/mL, the Tmax ([11]; po) was 1.7 h and the half-life ([11]; po) was 6.1 h. The “projected safety margin from the rat NOAEL” value [12] was 130 ×.
